Legend:
[1] = target: Tyrosine-protein kinase JAK2 (Homo sapiens, UniProt O60674)
[2] = target: T1, Tyrosine-protein kinase JAK3 (Homo sapiens, UniProt P52333)
T1 sequence (P52333 whole entry): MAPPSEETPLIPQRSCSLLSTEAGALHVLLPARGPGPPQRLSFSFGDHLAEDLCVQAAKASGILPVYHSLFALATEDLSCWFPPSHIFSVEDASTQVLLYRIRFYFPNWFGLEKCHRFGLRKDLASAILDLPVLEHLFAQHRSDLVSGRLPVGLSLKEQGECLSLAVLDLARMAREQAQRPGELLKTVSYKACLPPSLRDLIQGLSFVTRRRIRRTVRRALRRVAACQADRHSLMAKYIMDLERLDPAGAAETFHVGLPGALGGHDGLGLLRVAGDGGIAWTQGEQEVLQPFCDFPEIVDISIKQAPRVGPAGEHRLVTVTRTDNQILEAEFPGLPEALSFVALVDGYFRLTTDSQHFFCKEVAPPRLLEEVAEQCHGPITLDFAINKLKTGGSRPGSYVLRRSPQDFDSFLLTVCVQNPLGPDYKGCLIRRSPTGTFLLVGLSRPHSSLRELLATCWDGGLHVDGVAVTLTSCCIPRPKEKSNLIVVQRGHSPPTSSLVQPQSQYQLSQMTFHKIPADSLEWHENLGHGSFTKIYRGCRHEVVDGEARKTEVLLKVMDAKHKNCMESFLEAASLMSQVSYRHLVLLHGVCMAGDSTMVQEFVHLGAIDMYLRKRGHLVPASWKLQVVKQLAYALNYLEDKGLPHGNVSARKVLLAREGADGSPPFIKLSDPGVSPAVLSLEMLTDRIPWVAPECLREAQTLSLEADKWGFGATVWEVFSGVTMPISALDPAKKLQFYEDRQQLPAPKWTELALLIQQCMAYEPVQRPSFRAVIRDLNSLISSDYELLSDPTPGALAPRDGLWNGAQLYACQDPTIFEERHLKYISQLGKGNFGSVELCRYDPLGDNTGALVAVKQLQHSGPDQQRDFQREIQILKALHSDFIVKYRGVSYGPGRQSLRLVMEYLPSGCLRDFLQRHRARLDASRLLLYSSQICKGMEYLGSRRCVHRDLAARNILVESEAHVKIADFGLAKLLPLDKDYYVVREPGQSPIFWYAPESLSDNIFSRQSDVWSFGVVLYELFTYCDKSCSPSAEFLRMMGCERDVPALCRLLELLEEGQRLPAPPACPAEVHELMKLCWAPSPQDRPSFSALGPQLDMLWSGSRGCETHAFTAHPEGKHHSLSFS

[3] = target: Non-receptor tyrosine-protein kinase TYK2 (Homo sapiens, UniProt P29597)
Chain of Non-receptor tyrosine-protein kinase TYK2 (P29597 whole entry): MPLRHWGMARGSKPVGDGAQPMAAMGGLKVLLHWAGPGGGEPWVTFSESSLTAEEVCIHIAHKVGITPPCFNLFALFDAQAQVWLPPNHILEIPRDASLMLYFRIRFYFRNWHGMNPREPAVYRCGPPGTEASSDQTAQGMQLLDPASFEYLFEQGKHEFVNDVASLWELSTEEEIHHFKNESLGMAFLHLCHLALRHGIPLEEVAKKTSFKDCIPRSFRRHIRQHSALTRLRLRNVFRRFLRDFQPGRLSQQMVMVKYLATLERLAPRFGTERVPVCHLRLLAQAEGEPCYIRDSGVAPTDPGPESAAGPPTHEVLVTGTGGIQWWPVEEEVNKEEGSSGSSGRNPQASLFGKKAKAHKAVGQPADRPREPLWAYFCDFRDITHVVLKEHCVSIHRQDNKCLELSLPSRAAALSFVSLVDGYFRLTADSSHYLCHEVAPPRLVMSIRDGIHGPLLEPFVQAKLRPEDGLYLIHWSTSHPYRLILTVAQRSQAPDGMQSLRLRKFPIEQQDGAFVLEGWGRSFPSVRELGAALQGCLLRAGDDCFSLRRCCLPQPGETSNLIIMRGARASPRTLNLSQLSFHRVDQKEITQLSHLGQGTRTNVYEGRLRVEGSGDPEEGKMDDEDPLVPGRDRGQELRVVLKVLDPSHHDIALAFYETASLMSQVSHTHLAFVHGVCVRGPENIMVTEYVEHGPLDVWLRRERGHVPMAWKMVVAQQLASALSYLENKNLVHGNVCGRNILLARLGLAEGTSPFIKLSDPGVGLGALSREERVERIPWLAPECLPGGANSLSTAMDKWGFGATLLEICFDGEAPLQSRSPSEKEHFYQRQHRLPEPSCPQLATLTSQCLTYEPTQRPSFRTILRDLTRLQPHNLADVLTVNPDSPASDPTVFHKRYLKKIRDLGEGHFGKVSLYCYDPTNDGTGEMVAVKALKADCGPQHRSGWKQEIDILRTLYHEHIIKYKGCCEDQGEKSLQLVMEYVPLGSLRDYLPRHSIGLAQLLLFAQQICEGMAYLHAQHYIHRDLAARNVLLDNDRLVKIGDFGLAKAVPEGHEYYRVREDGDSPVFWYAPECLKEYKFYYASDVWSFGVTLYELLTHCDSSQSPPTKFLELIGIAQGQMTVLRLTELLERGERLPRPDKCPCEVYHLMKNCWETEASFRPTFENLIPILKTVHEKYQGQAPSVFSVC

Chain of Tyrosine-protein kinase JAK2 (O60674 whole entry): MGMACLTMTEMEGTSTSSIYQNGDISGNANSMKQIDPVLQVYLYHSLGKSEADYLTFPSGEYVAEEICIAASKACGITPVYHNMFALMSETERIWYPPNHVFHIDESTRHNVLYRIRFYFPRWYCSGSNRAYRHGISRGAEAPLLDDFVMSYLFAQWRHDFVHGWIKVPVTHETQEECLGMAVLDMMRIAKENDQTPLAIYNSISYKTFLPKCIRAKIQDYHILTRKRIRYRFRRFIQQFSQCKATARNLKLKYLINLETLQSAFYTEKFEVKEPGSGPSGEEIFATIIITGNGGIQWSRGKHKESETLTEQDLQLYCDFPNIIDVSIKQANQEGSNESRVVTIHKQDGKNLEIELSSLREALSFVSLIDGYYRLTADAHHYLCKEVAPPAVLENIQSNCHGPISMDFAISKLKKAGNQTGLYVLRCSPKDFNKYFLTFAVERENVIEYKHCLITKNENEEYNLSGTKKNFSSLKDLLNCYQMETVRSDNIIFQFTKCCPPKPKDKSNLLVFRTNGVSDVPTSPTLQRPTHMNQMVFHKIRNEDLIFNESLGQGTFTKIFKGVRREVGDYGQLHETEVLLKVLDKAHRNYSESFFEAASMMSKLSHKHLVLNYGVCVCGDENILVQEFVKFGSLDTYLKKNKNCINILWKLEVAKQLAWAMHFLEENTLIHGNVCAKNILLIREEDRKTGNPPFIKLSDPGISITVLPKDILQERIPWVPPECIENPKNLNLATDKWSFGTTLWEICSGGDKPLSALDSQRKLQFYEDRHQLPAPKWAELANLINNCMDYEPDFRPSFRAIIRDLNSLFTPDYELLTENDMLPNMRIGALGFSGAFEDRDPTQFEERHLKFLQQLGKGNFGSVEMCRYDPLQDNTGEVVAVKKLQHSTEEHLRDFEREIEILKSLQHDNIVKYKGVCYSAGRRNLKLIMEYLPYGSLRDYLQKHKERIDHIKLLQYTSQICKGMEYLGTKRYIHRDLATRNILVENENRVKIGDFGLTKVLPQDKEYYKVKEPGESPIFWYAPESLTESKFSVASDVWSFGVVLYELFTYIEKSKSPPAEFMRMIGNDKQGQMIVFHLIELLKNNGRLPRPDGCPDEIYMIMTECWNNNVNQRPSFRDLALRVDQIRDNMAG

## C=CC(=O)N1[C@@H]2CC[C@H]1C[C@H](Oc1cc(-c3ccc(O)cc3)cn3cncc13)C2 [US10851102, Example 10]
[1]
  Ki: > 100 nM
[2]
  Ki: < 0.1 nM
[3]
  Ki: > 100 nM
